Measured values reported in the supplement of paper PMC11451515.

Key:
P12-Ichikawa [1] = assay: cell viability relative to DMSO control; higher = less cytotoxic; settings: HPLM + 10% dialyzed FBS, 48 h
Outline: (§1)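 NOMO1, SEM and P12-Ichikawa leukemia cells spent at least four passages adapting to each medium before use. They were seeded at 500 cells/well (NOMO1, SEM) or 1000 cells/well (P12-Ichikawa) in 5 μl in 1536-well plates and pin-dosed with library compounds in DMSO at 11 threefold steps from 47 μM down to 0.79 nM. After 48 h at 37°C, CellTiter-Glo One luminescence was read. Viability is reported as a percentage of the DMSO wells on each plate, with cell-free wells as background.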

SEM cells [2] = assay: as above; settings: 48 h
Outline: as §1

NOMO1 = assay: AUC of viability dose-response curve (% viability x log10 dose units); higher = less sensitive; settings: 48 h
Outline: (§2)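 Over 48 h at 37°C, leukemia cells in 1536-well plates (500 or 1000 cells/well), adapted to each medium, received library compounds in DMSO at 11 threefold doses from 47 μM to 0.79 nM. CellTiter-Glo One luminescence, normalised per plate to DMSO and cell-free wells, was fitted by a four-parameter log-logistic function of log10 dose. The area under the curve was then integrated by trapezoidal rule, after scaling curves above full viability and removing those that failed quality control.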

P12-Ichikawa [3] = assay: as above; settings: 48 h
Outline: as §2

SEM cells [4] = assay: as above; settings: 48 h
Outline: as §2

[5] = RPMI 5 mM glucose + 10% FBS, 0.000781 µM
[6] = RPMI 5 mM glucose + 10% FBS, 0.00234 µM
[7] = RPMI 5 mM glucose + 10% FBS, 0.00702 µM
[8] = RPMI 5 mM glucose + 10% FBS, 0.0211 µM
[9] = RPMI 5 mM glucose + 10% FBS, 0.0632 µM
[10] = RPMI 5 mM glucose + 10% FBS, 0.19 µM
[11] = RPMI 5 mM glucose + 10% FBS, 0.569 µM
[12] = RPMI 5 mM glucose + 10% FBS, 1.71 µM
[13] = RPMI 5 mM glucose + 10% FBS, 5.12 µM
[14] = RPMI 5 mM glucose + 10% FBS, 15.4 µM
[15] = RPMI 5 mM glucose + 10% FBS, 46.1 µM
[16] = RPMI 5 mM glucose + 10% dialyzed FBS
[17] = HPLM + 10% dialyzed FBS, 0.000781 µM
[18] = HPLM + 10% dialyzed FBS, 0.00234 µM
[19] = HPLM + 10% dialyzed FBS, 0.00702 µM
[20] = HPLM + 10% dialyzed FBS, 0.0211 µM
[21] = HPLM + 10% dialyzed FBS, 0.0632 µM
[22] = HPLM + 10% dialyzed FBS, 0.19 µM
[23] = HPLM + 10% dialyzed FBS, 0.569 µM
[24] = HPLM + 10% dialyzed FBS, 1.71 µM
[25] = HPLM + 10% dialyzed FBS, 5.12 µM
[26] = HPLM + 10% dialyzed FBS, 15.4 µM
[27] = HPLM + 10% dialyzed FBS, 46.1 µM

Clc1ccccc1CN1CCc2sccc2C1
cell viability (P12-Ichikawa [1]; 0.000781 µM): 120% | cell viability (P12-Ichikawa [1]; 0.00234 µM): 121% | cell viability (P12-Ichikawa [1]; 0.00702 µM): 117% | cell viability (P12-Ichikawa [1]; 0.0211 µM): 130% | cell viability (P12-Ichikawa [1]; 0.0632 µM): 129% | cell viability (P12-Ichikawa [1]; 0.19 µM): 132% | cell viability (P12-Ichikawa [1]; 0.569 µM): 129% | cell viability (P12-Ichikawa [1]; 1.71 µM): 59.8% | cell viability (P12-Ichikawa [1]; 5.12 µM): 15.5% | cell viability (P12-Ichikawa [1]; 15.4 µM): 14.4% | cell viability (P12-Ichikawa [1]; 46.1 µM): 16.7% | cell viability (SEM cells [2]; [5]): 94.3% | cell viability (SEM cells [2]; [6]): 148% | cell viability (SEM cells [2]; [7]): 120% | cell viability (SEM cells [2]; [8]): 139% | cell viability (SEM cells [2]; [9]): 133% | cell viability (SEM cells [2]; [10]): 152% | cell viability (SEM cells [2]; [11]): 135% | cell viability (SEM cells [2]; [12]): 141% | cell viability (SEM cells [2]; [13]): 144% | cell viability (SEM cells [2]; [14]): 140% | cell viability (SEM cells [2]; [15]): 33.3% | AUC of viability dose-response curve (NOMO1; HPLM + 10% dialyzed FBS): 323 | AUC of viability dose-response curve (NOMO1; RPMI 5 mM glucose + 10% FBS): 315 | AUC of viability dose-response curve (NOMO1; [16]): 322 | AUC of viability dose-response curve (P12-Ichikawa [3]; HPLM + 10% dialyzed FBS): 348 | AUC of viability dose-response curve (P12-Ichikawa [3]; RPMI 5 mM glucose + 10% FBS): 340 | AUC of viability dose-response curve (P12-Ichikawa [3]; [16]): 373 | AUC of viability dose-response curve (SEM cells [4]; HPLM + 10% dialyzed FBS): 453 | AUC of viability dose-response curve (SEM cells [4]; RPMI 5 mM glucose + 10% FBS): 459 | AUC of viability dose-response curve (SEM cells [4]; [16]): 460

CC[C@@]1([C@@H]2O[C@@H]([C@H]3O[C@@](O)(CO)[C@H](C)C[C@@H]3C)C[C@@H]2C)CC[C@H]([C@]2(C)CC[C@]3(C[C@H](O)[C@@H](C)[C@@H]([C@@H](C)[C@@H](OC)[C@H](C)C(=O)[O-])O3)O2)O1
AUC of viability dose-response curve (NOMO1; HPLM + 10% dialyzed FBS): 381 | AUC of viability dose-response curve (NOMO1; RPMI 5 mM glucose + 10% FBS): 409 | AUC of viability dose-response curve (NOMO1; [16]): 393 | AUC of viability dose-response curve (P12-Ichikawa [3]; HPLM + 10% dialyzed FBS): 375 | AUC of viability dose-response curve (P12-Ichikawa [3]; RPMI 5 mM glucose + 10% FBS): 350 | AUC of viability dose-response curve (P12-Ichikawa [3]; [16]): 340 | AUC of viability dose-response curve (SEM cells [4]; HPLM + 10% dialyzed FBS): 336 | AUC of viability dose-response curve (SEM cells [4]; RPMI 5 mM glucose + 10% FBS): 324 | AUC of viability dose-response curve (SEM cells [4]; [16]): 343

CC(=O)OC\C1=C(\[N@]2[C@@H](SC1)[C@H](N)C2=O)C(O)=O
cell viability (SEM cells [2]; [17]): 104% | cell viability (SEM cells [2]; [18]): 111% | cell viability (SEM cells [2]; [19]): 119% | cell viability (SEM cells [2]; [20]): 120% | cell viability (SEM cells [2]; [21]): 123% | cell viability (SEM cells [2]; [22]): 141% | cell viability (SEM cells [2]; [23]): 129% | cell viability (SEM cells [2]; [24]): 138% | cell viability (SEM cells [2]; [25]): 125% | cell viability (SEM cells [2]; [26]): 126% | cell viability (SEM cells [2]; [27]): 97.1% | AUC of viability dose-response curve (NOMO1; HPLM + 10% dialyzed FBS): 330 | AUC of viability dose-response curve (NOMO1; RPMI 5 mM glucose + 10% FBS): 306 | AUC of viability dose-response curve (NOMO1; [16]): 324 | AUC of viability dose-response curve (P12-Ichikawa [3]; HPLM + 10% dialyzed FBS): 346 | AUC of viability dose-response curve (P12-Ichikawa [3]; RPMI 5 mM glucose + 10% FBS): 348 | AUC of viability dose-response curve (P12-Ichikawa [3]; [16]): 370 | AUC of viability dose-response curve (SEM cells [4]; HPLM + 10% dialyzed FBS): 462 | AUC of viability dose-response curve (SEM cells [4]; RPMI 5 mM glucose + 10% FBS): 473 | AUC of viability dose-response curve (SEM cells [4]; [16]): 470

CC1COC2=C3N1\C=C(C(O)=O)/C(=O)C3=CC(=C2N4CCN(C)CC4)F (stereo not given)
cell viability (SEM cells [2]; [17]): 119% | cell viability (SEM cells [2]; [18]): 128% | cell viability (SEM cells [2]; [19]): 122% | cell viability (SEM cells [2]; [20]): 122% | cell viability (SEM cells [2]; [21]): 121% | cell viability (SEM cells [2]; [22]): 125% | cell viability (SEM cells [2]; [23]): 128% | cell viability (SEM cells [2]; [24]): 119% | cell viability (SEM cells [2]; [25]): 118% | cell viability (SEM cells [2]; [26]): 120% | cell viability (SEM cells [2]; [27]): 119% | cell viability (SEM cells [2]; [5]): 111% | cell viability (SEM cells [2]; [6]): 124% | cell viability (SEM cells [2]; [7]): 125% | cell viability (SEM cells [2]; [8]): 136% | cell viability (SEM cells [2]; [9]): 142% | cell viability (SEM cells [2]; [10]): 118% | cell viability (SEM cells [2]; [11]): 117% | cell viability (SEM cells [2]; [12]): 122% | cell viability (SEM cells [2]; [13]): 117% | cell viability (SEM cells [2]; [14]): 106% | cell viability (SEM cells [2]; [15]): 115% | AUC of viability dose-response curve (NOMO1; HPLM + 10% dialyzed FBS): 459 | AUC of viability dose-response curve (NOMO1; RPMI 5 mM glucose + 10% FBS): 443 | AUC of viability dose-response curve (NOMO1; [16]): 446 | AUC of viability dose-response curve (P12-Ichikawa [3]; HPLM + 10% dialyzed FBS): 463 | AUC of viability dose-response curve (P12-Ichikawa [3]; RPMI 5 mM glucose + 10% FBS): 452 | AUC of viability dose-response curve (P12-Ichikawa [3]; [16]): 438 | AUC of viability dose-response curve (SEM cells [4]; HPLM + 10% dialyzed FBS): 470 | AUC of viability dose-response curve (SEM cells [4]; RPMI 5 mM glucose + 10% FBS): 453 | AUC of viability dose-response curve (SEM cells [4]; [16]): 463

CN1CC(=O)\N=C1\NC(=O)NC2=CC(=CC=C2)Cl
AUC of viability dose-response curve (NOMO1; HPLM + 10% dialyzed FBS): 452 | AUC of viability dose-response curve (NOMO1; RPMI 5 mM glucose + 10% FBS): 453 | AUC of viability dose-response curve (NOMO1; [16]): 468 | AUC of viability dose-response curve (P12-Ichikawa [3]; HPLM + 10% dialyzed FBS): 442 | AUC of viability dose-response curve (P12-Ichikawa [3]; RPMI 5 mM glucose + 10% FBS): 459 | AUC of viability dose-response curve (P12-Ichikawa [3]; [16]): 463 | AUC of viability dose-response curve (SEM cells [4]; HPLM + 10% dialyzed FBS): 448 | AUC of viability dose-response curve (SEM cells [4]; RPMI 5 mM glucose + 10% FBS): 471 | AUC of viability dose-response curve (SEM cells [4]; [16]): 457
